{"source": "paper PMC3942486", "about": "“The Ansamycin Antibiotic, Rifamycin SV, Inhibits BCL6 Transcriptional Repression and Forms a Complex with the BCL6-BTB/POZ Domain” (PLoS ONE, 2014)", "assay_type_in_all_cases": "binding", "key": {"BCL6-POZ domain [1]": {"target": "T1, BCL6-POZ domain (Homo sapiens, UniProt P41182, C67R/C84N/C8Q)", "T1 construct": "POZ domain (residues 7 to 128)", "assay": "X-ray crystal structure ([…] Å); 1H-15N TROSY-HSQC NMR titration"}, "BCL6-POZ domain [2]": {"target": "T2, BCL6-POZ domain (Homo sapiens, UniProt P41182, C8Q/C67R/C84N)", "T2 construct": "POZ domain (residues 7 to 128)", "assay": "1H-15N TROSY-HSQC NMR chemical shift perturbation"}, "BCL6-POZ domain [3]": {"target": "T2, BCL6-POZ domain", "assay": "1H-15N TROSY-HSQC NMR chemical shift perturbation; also relieves BCL6 repression in HEK293T luciferase reporter assay"}, "BCL6-POZ domain [4]": {"target": "T2, BCL6-POZ domain", "assay": "1H-15N TROSY-HSQC NMR chemical shift perturbation (weakest of the series)"}}}
{"smiles": "CO[C@H]1/C=C/O[C@@]2(C)Oc3c(C)c(O)c4c(c3C2=O)C2=NC3(CCN(CC(C)C)CC3)NC2=C(NC(=O)/C(C)=C\\C=C\\[C@H](C)[C@H](O)[C@@H](C)[C@@H](O)[C@@H](C)[C@H](OC(C)=O)[C@@H]1C)C4=O", "note": "[rifabutin]", "values": [{"measurement": "Kd", "setting": "BCL6-POZ domain [1]", "value": "~1000", "unit": "µM"}]}
{"smiles": "CO[C@H]1/C=C/O[C@@]2(C)Oc3c(C)c(O)c4c(O)c(c(/C=N/N5CCN(C)CC5)c(O)c4c3C2=O)NC(=O)/C(C)=C\\C=C\\[C@H](C)[C@H](O)[C@@H](C)[C@@H](O)[C@@H](C)[C@H](OC(C)=O)[C@@H]1C", "note": "[rifampicin]", "values": [{"measurement": "1H-15N TROSY-HSQC NMR chemical shift perturbation", "setting": "BCL6-POZ domain [2]", "value": "These derivatives all caused spectral changes of varying magnitude with the greatest shifts caused by rifabutin"}]}
{"smiles": "CO[C@H]1/C=C/O[C@@]2(C)Oc3c(C)c(O)c4c(O)c(cc(O)c4c3C2=O)NC(=O)/C(C)=C\\C=C\\[C@H](C)[C@H](O)[C@@H](C)[C@@H](O)[C@@H](C)[C@H](OC(C)=O)[C@@H]1C", "note": "[rifamycin SV]", "values": [{"measurement": "1H-15N TROSY-HSQC NMR chemical shift perturbation; also relieves BCL6 repression", "setting": "BCL6-POZ domain [3]", "value": "resulted in a subset of peaks shifting in a concentration dependent manner"}]}
{"smiles": "CO[C@H]1/C=C/O[C@@]2(C)Oc3c(C)c(O)c4c(O)c(c(/C=N/N5CCN(C6CCCC6)CC5)c(O)c4c3C2=O)NC(=O)/C(C)=C\\C=C\\[C@H](C)[C@H](O)[C@@H](C)[C@@H](O)[C@@H](C)[C@H](OC(C)=O)[C@@H]1C", "note": "[rifapentine]", "values": [{"measurement": "1H-15N TROSY-HSQC NMR chemical shift perturbation", "setting": "BCL6-POZ domain [2]", "value": "order of binding from weakest to strongest was: rifaximin, rifapentine, 3-formyl rifamycin, rifampicin, rifamycin SV and rifabutin"}]}
{"smiles": "CO[C@H]1/C=C/O[C@@]2(C)Oc3c(C)c(O)c4c(O)c(c5c(nc6cc(C)ccn65)c4c3C2=O)NC(=O)/C(C)=C\\C=C\\[C@H](C)[C@H](O)[C@@H](C)[C@@H](O)[C@@H](C)[C@H](OC(C)=O)[C@@H]1C", "note": "[rifaximin]", "values": [{"measurement": "1H-15N TROSY-HSQC NMR chemical shift perturbation (weakest of the series)", "setting": "BCL6-POZ domain [4]", "value": "order of binding from weakest to strongest was: rifaximin, rifapentine, 3-formyl rifamycin, rifampicin, rifamycin SV and rifabutin"}]}
